In patent US20090221683A1, “Combination of CXCR4 Antagonist and Morphogen to Increase Angiogenesis” (Caritas St.Elizabeth Medical Center of Boston, Inc, priority 2005, published 2009):
Where two headings read alike, the source gives them in different places.

What was measured:
[1] = tested on: peripheral blood MNCs and EPCs
Protocol: (§1) Peripheral blood mononuclear cells (PBMNCs) were isolated from 500 μl of peripheral blood obtained from each mouse. PBMNCs were cultured in EBM media (Clonetics, San Diego, Calif.) supplemented with 5% fetal bovine serum (FBS), antibiotics, and growth factors (EPC medium) on four 4-well glass slides coated with rat plasma vitronectin (Sigma) in 0.5% gelatin solution. Four days after culture, EPCs, recognized as attaching spindle-shaped cells, were assayed by co-staining with acetylated LDL (acLDL)-DiI (Biomedical Technologies, Stoughton, Mass.) and Bandeiraea simplicifolia (BS-1) lectin I (Vector Laboratories, Burlingame, Calif.), characteristics indicators of endothelial lineage, and conjugated with FITC (Sigma). Fluorescent microscopy identified double-positive cells as […] The numbers of double-positive cells per sample, measured in fifteen fields under 20× magnification, was were counted per sample in a blinded manner.
(§2) Such methods can be used for study of the compositions and methods of the instant invention.

[2] = tested on: FVB mice with myocardial infarction; settings: for FS (fractional shortening) / LVDd (left ventricular diastolic dimension) / LVDs (left ventricular systolic dimension) / LV + dP/dt / LV − dP/dt / LVEDP (left ventricular end-diastolic pressure) / LVSP (left ventricular systolic pressure): mean ± SE
Protocol: (§3) Eight-week old male FVB mice were anesthetized with sodium pentobarbital (50 mg/kg IP). The animals were intubated orally with a 22G IV catheter and artificially ventilated with a respirator (Harvard Apparatus). A left intercostal thoracotomy was performed and the ribs were retracted with 5-0 polypropylene sutures. After the pericardium was opened, the left anterior descending (LAD) branch of the left coronary artery was ligated proximal to the bifurcation between the LAD and the diagonal branch using 8-0 polypropylene sutures and visualized with a dissecting microscope. Positive end-expiratory pressure was applied to fully inflate the lungs, and the chest was closed with 7-0 polypropylene sutures. […] After physiological assessment at one, two and four weeks after MI, a subgroup of the mice were euthanized by intravenous administration of a lethal dose of pentobarbital.
Transthoracic echocardiography (SONOS 5500, Hewlett Packard) was performed just before MI and one, two and four weeks after MI. Left ventricular diastolic (LVDd) and systolic (LVDs) dimensions and fractional shortening were measured at the mid-papillary muscle level. Hemodynamic measurements were obtained at two and four weeks after MI using a 1.0-French high-fidelity pressure catheter (Millar Instruments, Houston, Tex.) via the left carotid artery. LV systolic pressure and maximal positive (+dP/dt) and negative (−dP/dt) pressure development were recorded after stabilization of LV function and heart rate. Such methods can be used for study of the compositions and methods of the instant invention.

mice with AMI = tested on: mice with AMI
Protocol: as §3
All values were expressed as mean±the standard error of the mean. […] Overall survival of all the mice was assessed by Kaplan-Meier analysis. Survival in individual experimental groups was also analyzed by Fisher's extract probability test. A p value of less than 0.05 was considered statistically significant.

left ventricle fibrosis = settings: two weeks after AMI
Protocol: (§4) The explanted hearts of sacrificed mice were sliced in a bread-loaf fashion into transverse sections from apex to base (base-, mid-, and apex-portions) and fixed with 4% paraformaldehyde. Tissues were embedded in paraffin and sectioned for elastic tissue/trichrome staining and immunohistochemistry using the murine-specific EC marker Bandeiraea simplicifolia lectin I (Isolectin B4) (Vector laboratories).
(§5) Capillary density was assessed by histological examination of five randomly selected fields of tissue sections from segments of the left ventricular myocardium served by the occluded LAD. Capillaries were recognized as tubular structures positive for isolectin B4. Elastic tissue/trichrome-stained tissues from the mice four weeks after MI were used to measure the average ratio of the external circumference of fibrosis area to LV area.

[3] = tested on: left ventricular myocardium border zone capillaries; settings: two weeks after AMI
Protocol: as §4, §5

peripheral blood EPCs = tested on: peripheral blood EPCs
Protocol: as §1
At each time point after the induction of MI, mononuclear cells were isolated from peripheral blood and total BM cells that had been obtained by flushing the tibias and femurs. EPCs were counted by culturing as described in Example 1, and stained with both acLDL-DiI and BS-1 lectin. Double positive cells were counted in 15 fields under objective 20× magnification per sample in a blinded manner.

[4] = tested on: bone marrow EPCs (Sca-1/Flk-1 positive); settings: one week after MI
Protocol: (§6) Fluorescence-activated cell sorting (FACS) was used to identify EPCs from mononuclear cells isolated both from peripheral blood and bone marrow. The viable mononuclear cell population was analyzed for the expression of Sca-1-FITC (Pharmingen) and Flk-1 (Santa Cruz) conjugated with the corresponding phycoerythrin-labeled secondary antibody (Sigma). Isotype-identical antibodies served as negative controls. Immunofluorescence-labeled cells were fixed with 2% paraformaldehyde and analyzed by quantitative flow cytometry using a FACStar flow cytometer (Becton Dickinson) and Cell Quest Software that counted 10,000 events per sample.

[5] = tested on: peripheral blood EPCs (Sca-1/Flk-1 positive); settings: one week after MI
Protocol: as §6

MMP-2 mRNA = settings: one week after MI; RT-PCR
Protocol: (§7) RNA was extracted from mononuclear cells isolated from bone marrow using TRIzol reagent (Invitrogen) according to the manufacture's instruction. Reverse transcriptase-polymerase chain reaction (RT-PCR) of the MMP-9 and GAPDH genes was performed using 1 pg of total RNA. PCR was performed for 25 cycles for both MMP-9 and GAPDH; each cycle maintained 94° C. for 30 seconds and 64° C. for three minutes. Amplification was carried out in 20-μl reaction mixtures containing 0.4 U Taq polymerase.

MMP-9 mRNA = settings: one week after MI; RT-PCR
Protocol: as §7

[6] = tested on: bone marrow EPCs (Sca-1/Flk-1 positive) of MMP-9-/- mice; settings: 1 week after MI
Description: MMP-9 expression was disrupted by deleting of most of exon 2 of the MMP-9 gene in the 129/SvEv genetic background (Jackson), as described previously. [Vu, 1998 #2370] […] Mononuclear cells from peripheral blood and total BM cells were isolated one week after MI and were examined by FACS analysis as described above.

[7] = tested on: bone marrow derived EPCs (X-gal positive cells); settings: Tie2-LacZ/BMT mice
Description: as §2, §2

[8] = tested on: bone-marrow derived endothelial cells (double-positive cells); settings: one week after AMI
Description: as §2
Apex-sections from the Tie-2/LZ/BMT mice were embedded in OCT compound (Miles Scientific) and snap-frozen in liquid nitrogen for fluorescence microscopy immediately after sacrifice.
Sections of ischemic (FIGS. 12A-12F) and intact (FIGS. 13A-13F) myocardium were stained for both BS lectin 1 (green fluorescence) and β-galactosidase (red fluorescence). […] Such methods can be used for study of the compositions and methods of the instant invention.

circulating EPC = settings: 2 hour after treatment; 240 μg/kg SC
Protocol: (§8) Methods: Using wild-type rats, MI was induced by ligation of the left anterior descending artery. […] 4 weeks after treatment, echocardiography, hemodynamic measurement and histological examination were performed.

[9] = tested on: border zone between scar and normal tissue capillaries; assay: Chronic MI rats: capillary density in the border zone; format: in vivo, rat; settings: 4 weeks after treatment
Protocol: as §8

[10] = 1 week after MI, 125 μg s.c. single injection
[11] = 2 weeks after MI, 125 μg s.c. single injection
[12] = 2 weeks after MI, 125 μg s.c. single injection, listed as AMD
[13] = 2 weeks after MI, listed as AMD
[14] = 4 weeks after MI, 125 μg s.c. single injection
[15] = 4 weeks after MI, 125 μg s.c. single injection, listed as AMD
[16] = 4 weeks after MI, listed as AMD

Q: Which “maximal MNCs and EPCs (acLDL uptake and BS-1 lectin double-positive cells)” value ([1]; 1 hour after single s.c. injection of 125 μg, n=5 experiments) does the source give for `c1cc(CN2CCCNCCNCCCNCC2)ccc1CN1CCCNCCNCCCNCC1` [AMD-3100, 1,1′-[1,4-phenylene-bis(methylene)]-bis-1,4,8,11-tetraazacyclotetradecane] here?
A: 613±89 cells/mm^2

Q: And the “time for number of EPCs/MNCs to return to baseline after injection” value ([1]; single s.c. injection of 125 μg)?
A: ≤ 24 h

Q: What about the “FS (fractional shortening)” value [2, 10] of the same compound?
A: 35 ± 2%

Q: What about the “LVDd (left ventricular diastolic dimension)” value (“LVDd” below) [2, 10] of the same compound?
A: 3.5 ± 0.1 mm

Q: What about the “LVDs (left ventricular systolic dimension)” value [2, 10] of the same compound?
A: 2.2 ± 0.1 mm

Q: What about the “FS (fractional shortening)” value [2, 11] of the same compound?
A: 34±1%

Q: And the “LVDd” value [2, 11]?
A: 3.8±0.1 mm

Q: And the “LVDs (left ventricular systolic dimension)” value [2, 11]?
A: 2.5±0.1 mm

Q: What about the “FS (fractional shortening)” value [2, 12] of the same compound?
A: 34±1%

Q: And the “LVDd” value [2, 12]?
A: 3.8 ± 0.1 mm

Q: And the “LVDs (left ventricular systolic dimension)” value [2, 12]?
A: 2.5 ± 0.1 mm

Q: And the “LVDd” value ([2]; 2 weeks after MI, 125 μg s.c. single injection, listed as AMD3100)?
A: 3.8±0.1 mm

Q: And the “LV + dP/dt” value ([2]; 2 weeks after MI)?
A: 3383±104 mm Hg/s

Q: And the “LV − dP/dt” value ([2]; 2 weeks after MI)?
A: 2213±113 mm Hg/s

Q: And the “LVEDP (left ventricular end-diastolic pressure)” value (from here on “LVEDP”) ([2]; 2 weeks after MI)?
A: 1.6±0.4 mmHg

Q: And the “LVSP (left ventricular systolic pressure)” value ([2]; 2 weeks after MI)?
A: 71±2 mmHg

Q: What about the “LV − dP/dt” value [2, 13] of the same compound?
A: 2842 ± 200 mm Hg/s

Q: What about the “LVEDP” value [2, 13] of the same compound?
A: 1.5±0.2 mmHg

Q: And the “LVSP (left ventricular systolic pressure)” value [2, 13]?
A: 73 ± 3 mmHg

Q: What about the LVDs ([2]; 3 wks post-MI (as printed in text)) of the same compound?
A: 2.5±0.2 mm

Q: What about the “LVDd” value [2, 14] of the same compound?
A: 4.0±0.1 mm

Q: What about the “LVDs (left ventricular systolic dimension)” value [2, 14] of the same compound?
A: 2.6±0.2 mm

Q: What about the “FS (fractional shortening)” value [2, 15] of the same compound?
A: 28±1%

Q: What about the “LVDd” value [2, 15] of the same compound?
A: 4.0 ± 0.1 mm

Q: And the “LVDs (left ventricular systolic dimension)” value [2, 15]?
A: 2.9 ± 0.1 mm

Q: What about the “LV − dP/dt” value ([2]; 4 weeks after MI) of the same compound?
A: 2213 ± 112 mm Hg/s

Q: What about the “LV + dP/dt” value [2, 16] of the same compound?
A: 3383±104 mm Hg/s

Q: And the “LVEDP” value [2, 16]?
A: 1.6±0.4 mmHg

Q: What about the “LVSP (left ventricular systolic pressure)” value [2, 16] of the same compound?
A: 71±2 mmHg

Q: What about the “FS (fractional shortening)” value ([2]; Before MI (baseline)) of the same compound?
A: 52 ± 1%

Q: And the “LVDd” value ([2]; Before MI (baseline))?
A: 2.8 ± 0.1 mm

Q: And the “LVDs (left ventricular systolic dimension)” value ([2]; Before MI (baseline))?
A: 1.4 ± 0.1 mm

Q: And the “difference in left ventricular systolic pressure (LVSP) between the groups” value ([2]; two weeks after MI)?
A: no significant difference

Q: What about the “mice still living (survival rate)” value (mice with AMI; 14 weeks after AMI, FIG. 4A) of the same compound?
A: 64%

Q: And the mice died (mice with AMI; another group of mice, four weeks after MI, FIG. 4B)?
A: 42%

Q: And the “survival rate versus mice receiving saline” value (mice with AMI; four weeks after MI, P<0.05)?
A: higher

Q: And the “fibrosis area of left ventricle” value (left ventricle fibrosis)?
A: 25±6%

Q: And the “capillary density in the border zone” value [3]?
A: 4005±189 /mm^2

Q: What about the “number of cultured EPCs” value (peripheral blood EPCs; four weeks after AMI) of the same compound?
A: returned to basline

Q: And the “number of EPCs in the peripheral blood (cultured, acLDL-DiI/BS-1 lectin double positive)” value (peripheral blood EPCs; one week after AMI)?
A: 868±210 /mm^2

Q: And the “number of EPCs in the peripheral blood (cultured, acLDL-DiI/BS-1 lectin double positive)” value (peripheral blood EPCs; two weeks after AMI)?
A: 556±47 /mm^2

Q: And the “EPCs (Sca-1/Flk-1 positive) in BM mononuclear cells by FACS” value [4]?
A: 1.9±0.1%

Q: What about the “EPCs (Sca-1/Flk-1 positive) in peripheral blood mononuclear cells by FACS” value [5] of the same compound?
A: 11.3±1.4%

Q: And the “MMP-2 mRNA expression in BM-mononuclear cells” value (MMP-2 mRNA)?
A: but not MMP-2

Q: And the “MMP-9 mRNA expression in BM-mononuclear cells” value (MMP-9 mRNA)?
A: enhanced expression

Q: What about the “difference in Sca-1/Flk-1 positive BM cells versus saline” value [6] of the same compound?
A: no significant difference

Q: And the “number of X-gal positive cells in infarct and border area” value ([7]; 1 week after AMI)?
A: 3776±113 /mm^2

Q: And the “number of X-gal positive cells in infarct and border area” value ([7]; 2 weeks after AMI)?
A: 1906±138 /mm^2

Q: And the “double-positive cells (BS lectin 1 and β-galactosidase)” value ([8]; a representative section)?
A: eight

Q: What about the “double-positive cells (BS lectin 1 and β-galactosidase)” value ([8]; another representative section) of the same compound?
A: eight

Q: And the “circulating EPC counts relative to baseline” value (circulating EPC)?
A: five

Q: And the “capillary density in the border zone between scar and normal tissue, increase vs. control” value [9]?
A: +52%
